Laboratory results from US20170035894A1, “DRUG DELIVERY CONJUGATES FOR TREATING RESISTANT CANCER AND FOR USE IN COMBINATION THERAPY” (ENDOCYTE, INC., priority 2014, published 2017).

Tested on: KB tumors
Test: Inhibition of tumor growth, s.c. KB tumors
Type: in vivo, nu/nu mice
Design: key to In vivo activity (e): CR=complete response, where tumor volume, as defined herein, during the observation period was zero for all test animals in the group
Conditions: for CR (%) / Cures (%) / PR (%): TIW
Experimental: METHOD. Inhibition of Tumor Growth in Mice. Four to seven week-old mice (Balb/c or nu/nu strains) were purchased from Harlan Sprague Dawley, Inc. (Indianapolis, Ind.). Normal rodent chow contains a high concentration of folic acid (6 mg/kg chow); accordingly, test animals were maintained on a folate-free diet (Harlan diet #TD00434) for about 1 week before tumor implantation to achieve serum folate concentrations close to the range of normal human serum, and during the Method. For tumor cell inoculation, 1×10^6 M109 cells (a syngeneic lung carcinoma) in Balb/c strain, or 1×10^6 KB cells in nu/nu strain, in 100 μL were injected in the subcutis of the dorsal medial area (right axilla). Tumors were measured in two perpendicular directions every 2-3 days using a caliper, and their volumes were calculated as 0.5×L×W^2, where L=measurement of longest axis in mm and W=measurement of axis perpendicular to L in mm.
Dosing solutions were prepared fresh each day in PBS and administered through the lateral tail vein of the mice.
Tumor implantation. KB tumor cells were grown in folate-deficient RPMI 1640 with 5% FBS at 37° C. in a 5% CO2 humidified atmosphere. KB (1×10^6 cells per animal) tumor cells were inoculated subcutaneously […] post start of the folate deficient diet. Mice were dosed after the tumors reached between 100-150 mm3.
Preparation of dosing drug solutions. Dosing solutions were prepared when dosing began by weighing appropriate amounts of each compound, reconstituting in PBS, pH 7.4, sterile filtering the drug solution through a 0.22 µm PVDF syringe filter, and freezing aliquots for each day of dosing at −20° C.
Evaluation. Tumor size was monitored and body weight measured 3 times/week. Attention was given to gross animal morphology and behavior. Euthanasia was performed if the mice lost >20% of weight or when the tumors reached a size of 1500 mm3. Euthanasia was also performed at the researcher's discretion if mice lost a lot of weight in a short duration or when mice were approaching moribund conditions. Blood samples were collected by cardiac puncture from all viable animals from selected cohorts. Heart, lungs, liver, spleen, kidney, intestines, bone, brain and muscle were obtained immediately after euthanasia. The tissues were removed and stored in 10% neutral-buffered formalin.
For example, a 50% decrease in tumor volume from the initial measurement represents a partial response.
For example, a decrease in tumor volume where the measurements in two perpendicular directions are each about 2 mm or less represents a complete response.

CCCC(=O)OCN(C(=O)[C@@H](NC(=O)[C@H]1CCCCN1C)C(C)CC)[C@H](C[C@@H](OC(C)=O)c1nc(C(=O)N[C@@H](Cc2ccc(O)cc2)C[C@H](C)C(=O)NNC(=O)OCCSSC[C@@H](NC(=O)[C@H](CCC(=O)NC[C@H](O)[C@@H](O)[C@H](O)[C@H](O)CO)NC(=O)[C@@H](CCC(=O)O)NC(=O)[C@H](CCC(=O)NC[C@H](O)[C@@H](O)[C@H](O)[C@H](O)CO)NC(=O)[C@@H](CCC(=O)O)NC(=O)[C@H](CCC(=O)NC[C@H](O)[C@@H](O)[C@H](O)[C@H](O)CO)NC(=O)CC[C@@H](NC(=O)c2ccc(NCc3cnc4nc(N)[nH]c(=O)c4n3)cc2)C(=O)O)C(=O)O)cs1)C(C)C (stereo in doubt) [EC1456]
CR (%) (0.5 μmol/kg, 3 weeks): 0%
Cures (%) (0.5 μmol/kg, 3 weeks): 0%
PR (%) (0.5 μmol/kg, 3 weeks): 60%
CR (%) (0.67 μmol/kg, 2 weeks): 20%
Cures (%) (0.67 μmol/kg, 2 weeks): 0%
PR (%) (0.67 μmol/kg, 2 weeks): 60%
CR (%) (1.0 μmol/kg, 2 weeks): 60%
Cures (%) (1.0 μmol/kg, 2 weeks): 60%
PR (%) (1.0 μmol/kg, 2 weeks): 40%
CR (%) (2.0 μmol/kg, 2 weeks): 100%
Cures (%) (2.0 μmol/kg, 2 weeks): 100%
PR (%) (2.0 μmol/kg, 2 weeks): 0%
efficacy of co-administration of EC1456 and carboplatin and paclitaxel (EC1456 1 μmol/kg BIW×2 + carboplatin 30 mg/kg BIW×2 + paclitaxel 10 mg/kg BIW×2): enhanced technical effect over EC1456 alone and the combination of carboplatin with paclitaxel
efficacy of co-administration of EC1456 and cisplatin (EC1456 1 μmol/kg BIW×2 + cisplatin 3 mg/kg BIW×3): enhanced technical effect over both monotherapies
efficacy of EC1456 alone compared to cisplatin (EC1456 1 μmol/kg BIW×2 vs cisplatin 3 mg/kg BIW×3): improved efficacy over cisplatin
efficacy of co-administration of EC1456 and bevacizumab (EC1456 1 μmol/kg TIW×2 + avastin 5 mg/kg BIW×2): enhanced technical effect over both monotherapies
efficacy of EC1456 alone compared to bevacizumab (EC1456 1 μmol/kg TIW×2 vs avastin 5 mg/kg BIW×2): improved efficacy over bevacizumab
cures, % of the mice (EC1456 added to the carboplatin/paclitaxel combination): 100%
PR's (EC1456 alone 1 μmol/kg twice a week for 2 weeks): 20%
efficacy of co-administration of EC1456 and topotecan (P-1606 KB tumors, EC1456 1 μmol/kg BIW×2 + topotecan 5 mg/kg BIW×2): enhanced technical effect over both monotherapies
efficacy of EC1456 alone compared to topotecan (P-1606 KB tumors, EC1456 1 μmol/kg BIW×2 vs topotecan 5 mg/kg BIW×2): improved efficacy over topotecan
efficacy of co-administration of EC1456 and docetaxel (P-1609 KB tumors, EC1456 1 μmol/kg TIW×5 + docetaxel 7 mg/kg BIW×3): enhanced technical effect over both monotherapies
efficacy of co-administration of EC1456 and topotecan (P-1609 KB tumors, EC1456 1 μmol/kg TIW×5 + topotecan 5 mg/kg TIW×5): enhanced technical effect over both monotherapies
efficacy of EC1456 alone compared to docetaxel (P-1609 KB tumors, EC1456 1 μmol/kg TIW×5 vs docetaxel 7 mg/kg BIW×3): improved efficacy over docetaxel
efficacy of EC1456 alone compared to topotecan (P-1609 KB tumors, EC1456 1 μmol/kg TIW×5 vs topotecan 5 mg/kg TIW×5): improved efficacy over topotecan
efficacy of co-administration of EC1456 and carboplatin (P-1635 KB tumors, EC1456 1 μmol/kg TIW + carboplatin 50 mg/kg TIW): enhanced technical effect over both monotherapies
efficacy of EC1456 alone compared to carboplatin (P-1635 KB tumors, EC1456 1 μmol/kg TIW×2 vs carboplatin 50 mg/kg TIW): improved efficacy over carboplatin
specific activity mediated by the folate receptor (co-dosed with excess comparator compound EC0923 (50 or 100 μmol/kg)): competable
anti-tumor activity / response (human KB tumors in mice, conjugated vs unconjugated drugs): dose responsive anti-tumor activity
complete response, test animals (intravenously 1 μmol/kg TIW, 2 wk): 4/4
In vivo activity (e) (subcutaneous KB tumor in nu/nu mice): CR
